Here are results for 2 compounds from article PMC11083148, “Structure–Activity Relationship Studies on Highly Functionalized Pyrazole Hydrazones and Amides as Antiproliferative and Antioxidant Agents” (International Journal of Molecular Sciences, 2024).

One assay deals with washed platelets. The assay can be described thus: ROS assay in platelets (DCFH-DA, thrombin-stimulated). The format is cell-based, human. The note with it: Homo sapiens, Platelet, 0.1 U/mL thrombin, mean ± SD, read-out: IC50 ROS production inhibition. In outline:
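Washed human platelets (1.0 × 10^8/mL) in pH 7.4 HEPES buffer were pre-incubated 15 min at 37 °C with compound, then stimulated with 0.1 U/mL thrombin. ROS was read as DCF fluorescence from DCFH-DA by flow cytometry. IC50 comes from three-point concentration-response nonlinear regression versus saline control, mean of six experiments.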

The nature of assay [1]: DPPH radical-scavenging activity. The class given is physicochemical. Also on record: AA (%), percentage of antioxidant activity: concentration or dose not given beside the values. The settings on record: mean ± SD, n = 2. The procedure:
The antioxidant activity of the representative compounds of the two series (namely, acylhydrazones 10b, 11a, 11d, 12d, 13d, and amides 14, 22) was measured in vitro using the 2,2-diphenyl-1-picrylhydrazyl (DPPH) assay. The results were calculated as Trolox equivalent and expressed as a percentage of antioxidant activity (AA) (Table 3). […] Derivatives 10b and 12d were endowed with the highest antioxidant activity, thus highlighting the relevance of both pyrazole N1 and acylhydrazone substituents on compounds’ radical scavenging properties.
Compounds 10b, 11a, 11d, 12d, 13d, 14, and 22 (ca. 3 mg) were dissolved in DMSO (1 mL), and then 100 µL of this solution was mixed with 3.9 mL of DPPH methanol solution (65 µM). Absorbance was measured at 517 nm after reacting for 30 min in the dark. The linear calibration curve was obtained using Trolox standards (ranging between 20 and 200 mg/L, R^2 = 0.9955). The result was calculated as Trolox equivalent in mg/L, and the percentage of antioxidant activity (AA%) was calculated from the ratio of decreasing absorbance of sample solution (A0 − As) to absorbance of blank DPPH solution (A0), as expressed in Equation (1). (1) AA%=A0−As/A0×100
All analyses were carried out in duplicate (n = 2), and values are given as means ± standard deviation (SD).

A further assay relates to BT-549. The assay can be described thus: NCI screening, Breast Cancer. The class given is cell-based. The note with it: BT-549, Breast Cancer; 10 µM. The procedure:
(§1) In addition, 11a and 17 (representative compounds of the acylhydrazone and amide series) were selected by the National Cancer Institute (NCI, Germantown, MD, USA) and tested at a fixed concentration of 10 µM against a panel of fifty-nine different cancer cell lines, including highly metastatic tumors (Table 2).

The next assay deals with MDA-MB-231/ATCC. The assay is described as follows: NCI screening, Breast Cancer. The format is cell-based. The note with it: 10 µM. The procedure:
as §1

The next assay deals with T-47D. The assay can be described thus: NCI screening, Breast Cancer. The format is cell-based. The settings on record: 10 µM. The procedure: as §1
A further assay has as its system MALME-3M. The assay can be described thus: NCI screening, Melanoma. The note with it: 10 µM. The format is cell-based. The procedure: as §1
The test system of the next assay is SK-MEL-28. The assay can be described thus: NCI screening, Melanoma. The class given is cell-based. The note with it: SK-MEL-28, Melanoma; 10 µM. The procedure:
as §1

The subject of another assay is SK-MEL-2. The assay can be described thus: NCI screening, Melanoma. The format is cell-based. The settings on record: SK-MEL-2, Melanoma; 10 µM. The procedure:
as §1

The subject of a further assay is SK-MEL-5. The assay is described as follows: NCI screening, Melanoma. The format is cell-based. The note with it: SK-MEL-5, Melanoma; 10 µM. The procedure: as §1
The test system of a further assay is UACC-257. The assay can be described thus: NCI screening, Melanoma. The class given is cell-based. The note with it: UACC-257, Melanoma; 10 µM. The procedure: as §1
A further assay relates to UACC-62. The assay is described as follows: NCI screening, Melanoma. The class given is cell-based. The settings on record: UACC-62, Melanoma; 10 µM. The procedure:
as §1

The next assay has as its system HL-60(TB). The assay can be described thus: NCI screening, Leukemia. The note with it: 10 µM. The class given is cell-based. The procedure: as §1
For the next assay, the system named is K-562. The assay is described as follows: NCI screening, Leukemia. The format is cell-based. The settings on record: K-562, Leukemia; 10 µM. The procedure:
as §1

A further assay has as its system SR. The assay is described as follows: NCI screening, Leukemia. The format is cell-based. The settings on record: 10 µM. The procedure: as §1
The next assay relates to NCI-H460. The assay can be described thus: NCI screening, Non-Small Cell Lung Cancer. The format is cell-based. The note with it: 10 µM. The procedure: as §1
In another assay the test system is NCI-H522. The assay can be described thus: NCI screening, Non-Small Cell Lung Cancer. The class given is cell-based. The note with it: 10 µM. The procedure: as §1
Another assay deals with HCT-116. The assay is described as follows: NCI screening, Colon Cancer. The format is cell-based. The settings on record: HCT-116, Colon Cancer; 10 µM. The procedure:
as §1

The test system of the next assay is HCT-15. The assay can be described thus: NCI screening, Colon Cancer. The class given is cell-based. The note with it: HCT-15, Colon Cancer; 10 µM. The procedure: as §1
For another assay, the system named is HT29. The assay is described as follows: NCI screening, Colon Cancer. The settings on record: 10 µM. The class given is cell-based. The procedure: as §1
The next assay deals with SW-620. The assay can be described thus: NCI screening, Colon Cancer. The note with it: SW-620, Colon Cancer; 10 µM. The format is cell-based. The procedure:
as §1

In a further assay the test system is LOX IMVI. The assay is described as follows: NCI screening, Melanoma. The class given is cell-based. The note with it: 10 µM. The procedure: as §1

SMILES strings stand for the structures.

Regarding `COc1ccc(/C=N/NC(=O)c2c(N)nn(C)c2Nc2ccccc2)cc1` [11a, (E)-3-amino-N′-(4-methoxybenzylidene)-1-methyl-5-(phenylamino)-1H-pyrazole-4-carbohydrazide], the IC50 (in general, the concentration at which inhibition is half-maximal) in the assay with washed platelets worked out at 123 ± 12 µM. In addition, in [1], the “AA (%), percentage of antioxidant activity” value was determined as 25.56 ± 2.44%. The “DPPH (%)” value in [1] is listed as 74.44 ± 2.44%. Also, the “Growth Percentage (%)” value was found to be 14.04% in the assay on BT-549; 65.06% with MDA-MB-231/ATCC; 42.38% with T-47D; 44.75% in the assay on MALME-3M; 57.48% in the assay with SK-MEL-28; 70.70% with SK-MEL-2. The “Growth Percentage (%)” value amounted to 57.21% with SK-MEL-5, 56.35% in the assay with UACC-257 and 23.72% in the assay with UACC-62.

For `CCOC(=O)c1c(NC(=O)C2CC2)nn(C)c1Nc1ccccc1` [compound 17, Ethyl 3-(cyclopropanecarboxamido)-1-methyl-5-(phenylamino)-1H-pyrazole-4-carboxylate], the half-maximal inhibitory concentration (IC50) in the assay with washed platelets was 573 µM. The “Growth Percentage (%)” value was found to be 96.44% with HL-60(TB); 96.41% in the assay on K-562; 94.23% in the assay with SR; 101.02% in the assay with NCI-H460; 97.23% with NCI-H522; 104.12% with HCT-116. Further, the “Growth Percentage (%)” value in the assay on HCT-15 is given as 96.95%; in the assay on HT29, 99.47%; in the assay on SW-620 it was 94.82%; with BT-549, 118.46%; with MDA-MB-231/ATCC, 100.37%; in the assay with T-47D, 93.07%. Also, the “Growth Percentage (%)” value with LOX IMVI worked out at 102.01%; with MALME-3M it was 98.67%; in the assay with SK-MEL-28, 107.16%; in the assay on SK-MEL-2 it was 100.69%; with SK-MEL-5, 99.45%; in the assay with UACC-257, 99.58%. Also, the “Growth Percentage (%)” value in the assay on UACC-62 is 93.55%.
